Test results reported in patent US20040014140A1, “Methods for identifying allosteric sites” (priority 2002, published 2004).

Tests used:
[1] = system: mutant PTP-1B where Asn-193 is mutated to alanine, Phe-196 is mutated to arginine, and Phe-280 is mutated to cysteine; experiment: Inhibition of allosterically disabled mutant PTP-1B; assay type: biochemical, human; details: N193A, F196R, F280C mutant; allosteric mechanism disabled
Text: The importance of allosteric forming residues, Asn-193, Phe-196, and Phe-280 has been confirmed in part using mutagenesis experiments.
PTP-1B[321; N193A; F196R; F280C] was generated by joining an NdeI-PstI fragment from PTP-IB[321; N193A; F196R], corresponding to residues 1-215, with a PstI-EcoRI fragment from PTP-1B[321; F280C], corresponding to residues 216-321.
PTP-1B[298; N193A; F196R; F280C] was generated by PCR using PTP-1B[321; N193A; F196R; F280C] as a template. T7 vector primer was used as forward primer and truncation at residue 298 was generated using the primer 5′-[…] (SEQ ID. NO. 22).

caspase-9 = experiment: Tethering experiments with caspase-9; design: species or system human; details: binding to the small subunit, cysteine corresponding to Ile-265 in caspase-3
Protocol: This example describes one embodiment of a tethering experiment using caspase-3 or cysteine mutants thereof. […] Reactions were allowed to proceed to equilibrium (≧1 hour) before being analyzed by mass spectrometry. The reaction mixture was loaded onto a Finnegan LCQ2 or LCQ3 LCMS, with each run taking 2-5 minutes, depending upon the separation procedure. After deconvolution, the large and/or small subunits were identified based upon their known molecular weight.

Row | SMILES | inhibition of mutant PTP-1B [1] | selection in tethering experiments (caspase-9)
1 | CCc1oc2cc(S(=O)(=O)Nc3ccc(S(N)(=O)=O)cc3)ccc2c1C(=O)c1cc(Br)c(O)c(Br)c1 [compound 15] | no longer capable of inhibiting the enzyme | 
2 | O=C(O)c1ccc(Oc2ccccc2)cc1 [compound 8] |  | selected
